Reference: US5120764A, “Inhibitors of lysyl oxidase” (Merrell Dow Pharmaceuticals Inc., priority 1988, dated 1992)
Structures can show the parent of a compound that is named as a salt.

Target: T1, lysyl oxidase (Bos taurus, UniProt P33072)
T1 sequence (P33072 170-418): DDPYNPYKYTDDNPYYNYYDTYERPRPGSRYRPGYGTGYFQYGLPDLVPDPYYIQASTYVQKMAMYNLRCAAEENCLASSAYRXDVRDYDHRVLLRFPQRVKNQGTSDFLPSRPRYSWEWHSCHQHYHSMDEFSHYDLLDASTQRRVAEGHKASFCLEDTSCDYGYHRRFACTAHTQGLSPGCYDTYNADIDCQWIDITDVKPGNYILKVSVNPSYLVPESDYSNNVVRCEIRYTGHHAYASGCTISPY
Test: Lysyl oxidase inhibition (fluorometric assay, cadaverine substrate, horseradish peroxidase/homovanillic acid)
Assay type: biochemical
Details: lysyl oxidase preparation from bovine aorta, 55° C., 10 minutes, pH 8.2 borate buffer, read-out: IC50 (concentration of test compound required to inhibit the enzyme activity by 50 percent)
Experimental: Lysyl oxidase preparation is obtained from bovine aorta by the procedures modified from M. A. Williams and H. M. Kagan, Anal. Biochem. 149, 430-437 (1985) and H. M. Kagan and K. A. Sullivan, Methods in Enzyml. 82, 637-650 (1982). The aorta is obtained fresh on the day of the enzyme preparation and is maintained at 4° C. for the duration of its use in the experiments. The aorta is ground fine and is homogenized for 90 seconds in buffer (2.5 ml of a buffer consisting of 16 mM potassium phosphate and 1 mM phenylmethylsulfonyl fluoride/g of tissue) with 0.15M NaCl added, then the mixture is centrifuged (20 minutes at 11,000×g). The homogenization followed by centrifugation procedure is repeated with buffer plus 0.15 M NaCl, buffer alone, and buffer plus 1M urea. After homogenization in 1M urea, the mixture is stirred for 1 hour prior to centrifugation. The resulting pellet is homogenized in buffer plus 4M urea, stirred for 18 hours, and centrifuged. The supernatant with lysyl oxidase activity is saved. The tissue is homogenized in buffer plus 4M urea, stirred overnight, and centrifuged twice more. The supernatants with lysyl oxidase activity are saved.
The assay is adopted from that of P. C. Trackman, et al., Anal. Biochem. 113, 336-342 (1981). Each assay consists of two tubes, one that contains 0.2 mM β-aminopropionitrile, BAPN, from the start and one to which BAPN is added to quench the reaction. Lysyl oxidase preparation (0.150 ml), urea (0.300 ml, 4M), buffer (0.930 ml, 200 mM borate at pH =8.2), homovanillic acid (0.020 ml of 50 mM solution), and horseradish peroxidase (0.010 ml of Sigma Type II at 5 mg/ml protein) are incubated for 2 minutes at 55° C. in a test tube. Cadaverine (0.100 ml of 150 mM) and test compound, if any, is added and the incubation continued at 55° C. for an additional 10 minutes. The test tubes containing this mixture are then cooled in a ice bath after adding BAPN to any tubes not containing it. The difference in fluorescence (excitation 315 nm and emission 425 nm) between corresponding tubes that received BAPN at 0 minutes and at 10 minutes is a measure of enzyme activity. A standard curve to determine the amount of cadaverine converted by lysyl oxidase is prepared as follows. Assay mixtures containing BAPN are made up as described and known amounts of hydrogen peroxide are added simultaneously with cadaverine and the fluorescence changes after 10 minutes reaction are determined.
Using this method the lysyl oxidase inhibiting activity expressed as IC50 (inhibitory concentration), that is the concentration of test compound required to inhibit the enzyme activity by 50 percent, was determined for various compounds of this invention.

SMILES	IC50
C=C=C(CN)CCCCCC [β-Ethenylidene-1-Octanamine Hydrochloride]	1 nM
C=C=C(CN)c1cc2ccccc2s1 [β-Ethylenylidene-Benzo[β]Thiophene-2-Ethanamine Hydrochloride]	10 nM
C=C=C(CN)CCCc1ccccc1 [β-Ethenylidenebenzenepentanamine Hydrochloride]	1 nM
C=C=C(CN)c1cccs1 [β-Ethenylidene-2-Thiopheneethanamine-4-Methylbenzenesulfonate]	10 nM
C=C=C(CN)CCc1ccccc1 [β-Ethenylidenebenzenebutanamine Hydrochloride]	1 nM
C=C=C(CN)c1ccc(OC)cc1 [β-Ethenylidene-4-Methoxybenzeneethanamine-4-Methylbenzenesulfonate]	10 nM
